Experimental data reported in US11702629B2, “Acceleration of stem cell differentiation” (Regents of the University of Minnesota, priority 2017, dated 2023).
Entries after “also recorded” stand apart in the source; their conditions may differ.

Assays:
[1] = test system: human pluripotent stem cells; test: Accelerated neural induction of hPSCs/hiPSCs into neuroepithelium, 24 hours (NANOG/SOX2/SOX1/PAX6 immunostaining); format: cell-based; conditions: for Effect on NE formation of inhibitors of FGF signaling cascade components: standard neuralizing conditions
Method: Prior to passaging, a recombinant human vitronectin stock solution (500 ug/mL, Peprotech AF-140-09, Rocky Hill, N.J., USA) was diluted 1:100 in DPBS+/+ (ThermoFisher Scientific cat #14040-133, Waltham, Mass., USA) and used to coat 9.6 cm^2 tissue-culture treated wells (Fischer Scientific, Hampton, N.H.) for one hour at room temperature. hPSCs were washed once with 1 mL hypertonic citrate buffer (11) or equivalent and then incubated with 1 mL hypertonic citrate buffer (11) at 37° C. for 6 minutes until colony detachment occurred. The colonies were collected and processed into 25-50 cell fragments by trituration and the dissociation quenched with 5 mL Essential 6 Medium (ThermoFisher Scientific A1516401, Waltham, Mass., USA). Suspensions were collected into 15 mL conical tubes and centrifuged for 1 minute at 200×G. Supernatants were aspirated and pellets resuspended into 1.2 mL Essential 6 Medium (ThermoFisher Scientific A2858501, Waltham, Mass., USA) assuming a 1:6 split ratio. 0.2 mL cultures were seeded onto rhVTN-coated wells containing Essential 8 Medium. Cultures were maintained in Essential 8 Medium with daily media changes and passaged every 3 days.
Differentiation medium consisting of Essential 6 supplemented with LDN-193189 HCl (500 nM, Selleckchem cat #S7507, Houston, Tex. USA) and BGJ398 (100 nM Selleckchem cat #S2183 Houston, Tex. USA) was combined and distributed 2 mL per vitronectin-coated well of a 6-well plate. hPSCs were dissociated into small clumps (25-50 cells per clump) as indicated above. 0.2 to 0.4 mL cultures were seeded onto rhVTN-coated wells containing differentiation medium.
Conditions were assayed in which the ERK pathway was inhibited at both receptor and downstream intracellular effector levels. The VEGFR2/FGFR2 inhibitor SU5402 was compounded with previously known neurulation conditions containing the ALK2/3 receptor antagonist LDN 193189 and the ALK 4/5/7 receptor antagonist A8-30-1 to observe their combined effect on undifferentiated pluripotent stem cells.
24-hour differentiating cultures were analyzed prior to cell death for various transcription factors associated with pluripotency and NE formation. […] SOX2, common to both hPSCs and NE, was maintained.

day-2 neuromesoderm = test: Conversion of day-2 neuromesoderm into spinal neuroepithelium; format: cell-based, human; conditions: day 3
Method: Day-one Neuromesoderm progenitors were exposed to differentiation medium consisting of Essential 6 supplemented with CHIR 99021 (3 uM, Tocris cat #4423, Bristol UK) and FGF-Basic TS™ (20 ng/mL, Humanzyme cat #HZ-1286, Chicago, Ill. USA) for 24 hours. This day-two neuromesoderm was further exposed to differentiation medium consisting of Essential 6 supplemented with BGJ398 (100 nM Selleckchem cat #52183 Houston, Tex. USA) to create a day-three population of PAX3/SOX1/HOXB4-positive neuroepithelial cells.
It has been shown that retinoic acid signaling is needed to convert neuromesoderm into spinal cord neuroepithelium. […] It has been shown that retinoids exert multiple simultaneous functions in the developing spinal cord, inhibiting FGF signaling, while activating both WNT and SHH signaling. […] This spinal neuroepithelium was further characterized with respect to additional markers and discovered that it was partially PAX3-positive, an early spinal neural plate marker. The day-3 conditions were optimized to maximize PAX3 and it was discovered that moderate WNT signaling was needed in addition to FGF inhibition to derive a pure population of cervical neural plate epithelium homogeneously expression PAX3 (FIG. 18). To investigate the dorso-ventral patterning competency of these retinoid-independent spinal neuroepithelial cells, the day-3 cultures were exposed to SHH signaling. […]

[2] = test system: human pluripotent stem cells; test: Accelerated production of neuromesoderm progenitors directly from hPSCs, 24 hours (SOX2/T immunophenotype); format: cell-based
Method: Differentiation medium consisting of Essential 6 supplemented with LDN-193189 HCl (500 nM, Selleckchem cat #S7507, Houston, Tex. USA), BGJ398 (100 nM Selleckchem cat #S2183 Houston, and TX USA), and CHIR 99021 (3 uM, Tocris cat #4423, Bristol UK) was combined and distributed 2 mL per vitronectin-coated well of a 6-well plate. hPSCs were dissociated into small clumps (25-50 cells per clump) as indicated above. 0.2 to 0.4 mL cultures were seeded onto rhVTN-coated wells containing differentiation medium.
The previous scenario utilized a neuroectoderm intermediate for the generation of neuromesoderm. Because it has been shown that neuromesoderm can be derived directly from hPSCs, high levels of WNT signaling were incorporated into the day-1 neuroectoderm conditions to investigate whether this could induce neuromesoderm directly.

day-1 neuroectoderm = test: Caudalization of day-1 neuroectoderm into neuromesoderm; format: cell-based, human; conditions: by day 2
Method: Controversy currently exists surrounding the origin of the most caudal segments of the central nervous system that include the spinal cord. In vitro conditions for generating spinal cord tissue have traditionally relied upon the formation of anterior neural plate expressing SOX1+/FOXG1+/OTX2+/PAX5−/HOXB4− that is caudalized with factors such as FGF, WNT, and retinoic acid to create SOX1+/FOXG1−/OTX2−/PAX5−/HOXB4+ positive cervical spinal cord tissue. […] An additional 24 hours of WNT/FGF signaling converted this population into SOX1−/SOX2+/T+/TBX6−/HOXB4+ cervical-level neuromesoderm (FIG. 13).

[3] = 24-hour cultures, SU5402 with LDN 193189 and A8-30-1

CCN1CCN(c2ccc(Nc3cc(N(C)C(=O)Nc4c(Cl)c(OC)cc(OC)c4Cl)ncn3)cc2)CC1 [BGJ398, 3-(2,6-dichloro-3,5-dimethoxyphenyl)-1-(6-(4-(4-ethylpiperazin-1-yl)-phenylamino)pyrimidin-4-yl)-1-methylurea]
Induction of SOX1-immunoreactivity when substituted for SU5402 in the inhibitor cocktail ([1]; 24 hours, panel of hPSC lines): matches or exceeds marker expression levels seen when using SU5402 | Population created from day-2 neuromesoderm (day-2 neuromesoderm): created a pure population of spinal neuroepithelium lacking evidence of neuromesoderm or somite tissues

Cc1c[nH]c(-c2cnc(NCCNc3ccc(C#N)cn3)nc2-c2ccc(Cl)cc2Cl)n1 [CHIR99021]
HOXB4 expression of day-2 cultures ([2]; additional 24 hours incubation after day-1 neuromesoderm induction): upregulated the HOXB4 transcription factor | Population induced from day-1 neuroectoderm by high WNT signaling (day-1 neuroectoderm): sufficient to induce a SOX1−/SOX2+/T+/TBX6−/HOXB4− population by day 2

O=C(NOC[C@H](O)CO)c1ccc(F)c(F)c1Nc1ccc(I)cc1F [PD0325901, N-[(2R)-2,3-Dihydroxypropoxy]-3,4-difluoro-2-[(2-fluoro-4-iodophenyl)amino]-benzamide]
Effect on NE formation of inhibitors of FGF signaling cascade components [1]: performed similarly to BGJ398; also recorded: substitutes for SU5402 | Replacement of BGJ398 in neural induction ([1]; with LDN 193189): fully replaces use of BGJ398 | Replacement of BGJ398 in neuromesoderm formation ([2]; with LDN193189 and CHIR99021): fully replaces use of BGJ398

COc1nccc(-c2c(-c3ccc(F)cc3)ncn2C2CCC(O)CC2)n1 (stereo not drawn) [SB239063]
Effect on NE formation of inhibitors of FGF signaling cascade components [1]: had no effect

Cc1c[nH]c(C=C2C(=O)Nc3ccccc32)c1CCC(=O)O [SU5402, 3-[4-Methyl-2-(2-oxo-1,2-dihydro-indol-3-ylidenemethyl)-1H-pyrrol-3-yl]-propionic acid]
SOX1-positivity (cells) ([1]; 24-hour cultures, SU5402 compounded with LDN 193189 and A8-30-1): greater than 90% | NANOG positivity compared to undifferentiated control cultures [1, 3]: reduced NANOG positivity | SOX2 expression [1, 3]: maintained | Outcome of continued culture ([1]; additional 48 hours, SU5402 with LDN 193189 and A8-30-1, data not shown): resulted in cell death
